Measured values from the NIST ThermoML archive (doi:10.1021/je400250u).

Assays:
[1] = refractive index (Na D-line) (dimensionless); xn = mol fraction of the nth substance listed; conditions: Liquid, Standard Abbe refractometry
[2] = xn = mol fraction of the nth substance listed; conditions: 100 kPa, Liquid; for viscosity: Capillary tube (Ostwald / Ubbelohde) method; for mass density: Vibrating tube method

C1CC[C@H]2CCCC[C@@H]2C1 [trans-decahydronaphthalene] + CCCCCCCCCC
refractive index, [1], 101 kPa
Conditions	x1 = 0.1035	x1 = 0.2016	x1 = 0.3001	x1 = 0.3994	x1 = 0.5036	x1 = 0.6062	x1 = 0.6989	x1 = 0.7891	x1 = 0.8949	x1 = 1
298.15 K	1.4144	1.4192	1.4243	1.4301	1.4355	1.4414	1.4471	1.4524	1.4592	1.4662
308.15 K	1.4099	1.4153	1.4204	1.4256	1.4317	1.4371	1.4431	1.4484	1.4553	1.4618
318.15 K	1.4055	1.4112	1.4162	1.4211	1.4271	1.4336	1.4389	1.4448	1.4518	1.4581

[2]
Conditions	mass density [kg/m3]	viscosity [mPa·s]
293.15 K, x1 = 0.1035	743.5	0.98
293.15 K, x1 = 0.2016	755.54	1.035
293.15 K, x1 = 0.3001	768	1.099
293.15 K, x1 = 0.3994	781.01	1.175
293.15 K, x1 = 0.5036	795.1	1.272
293.15 K, x1 = 0.6062	809.53	1.388
293.15 K, x1 = 0.6989	822.98	1.514
293.15 K, x1 = 0.7891	836.46	1.649
293.15 K, x1 = 0.8949	852.8	1.848
293.15 K, x1 = 1	869.78	2.112
298.15 K, x1 = 0.1035	739.74	0.91
298.15 K, x1 = 0.2016	751.79	0.958
298.15 K, x1 = 0.3001	764.27	1.019
298.15 K, x1 = 0.3994	777.28	1.087
298.15 K, x1 = 0.5036	791.38	1.174
298.15 K, x1 = 0.6062	805.81	1.28
298.15 K, x1 = 0.6989	819.26	1.394
298.15 K, x1 = 0.7891	832.75	1.514
298.15 K, x1 = 0.8949	849.09	1.694
298.15 K, x1 = 1	866.07	1.925
303.15 K, x1 = 0.1035	735.97	0.848
303.15 K, x1 = 0.2016	748.02	0.89
303.15 K, x1 = 0.3001	760.51	0.946
303.15 K, x1 = 0.3994	773.52	1.01
303.15 K, x1 = 0.5036	787.63	1.09
303.15 K, x1 = 0.6062	802.07	1.185
303.15 K, x1 = 0.6989	815.53	1.285
303.15 K, x1 = 0.7891	829.02	1.396
303.15 K, x1 = 0.8949	845.37	1.555
303.15 K, x1 = 1	862.34	1.769
308.15 K, x1 = 0.1035	732.17	0.794
308.15 K, x1 = 0.2016	744.24	0.834
308.15 K, x1 = 0.3001	756.74	0.884
308.15 K, x1 = 0.3994	769.76	0.941
308.15 K, x1 = 0.5036	783.88	1.013
308.15 K, x1 = 0.6062	798.32	1.101
308.15 K, x1 = 0.6989	811.79	1.197
308.15 K, x1 = 0.7891	825.29	1.293
308.15 K, x1 = 0.8949	841.64	1.436
308.15 K, x1 = 1	858.61	1.628
313.15 K, x1 = 0.1035	728.37	0.744
313.15 K, x1 = 0.2016	740.45	0.778
313.15 K, x1 = 0.3001	752.95	0.828
313.15 K, x1 = 0.3994	765.99	0.881
313.15 K, x1 = 0.5036	780.11	0.947
313.15 K, x1 = 0.6062	794.56	1.024
313.15 K, x1 = 0.6989	808.04	1.113
313.15 K, x1 = 0.7891	821.54	1.201
313.15 K, x1 = 0.8949	837.9	1.33
313.15 K, x1 = 1	854.88	1.505
318.15 K, x1 = 0.1035	724.55	0.702
318.15 K, x1 = 0.2016	736.64	0.734
318.15 K, x1 = 0.3001	749.16	0.777
318.15 K, x1 = 0.3994	762.2	0.826
318.15 K, x1 = 0.5036	776.34	0.887
318.15 K, x1 = 0.6062	790.8	0.959
318.15 K, x1 = 0.6989	804.28	1.032
318.15 K, x1 = 0.7891	817.79	1.119
318.15 K, x1 = 0.8949	834.16	1.237
318.15 K, x1 = 1	851.14	1.394
323.15 K, x1 = 0.1035	720.72	0.662
323.15 K, x1 = 0.2016	732.82	0.696
323.15 K, x1 = 0.3001	745.35	0.732
323.15 K, x1 = 0.3994	758.4	0.777
323.15 K, x1 = 0.5036	772.55	0.834
323.15 K, x1 = 0.6062	787.02	0.896
323.15 K, x1 = 0.6989	800.51	0.966
323.15 K, x1 = 0.7891	814.04	1.046
323.15 K, x1 = 0.8949	830.41	1.154
323.15 K, x1 = 1	847.4	1.295

C1CC[C@H]2CCCC[C@@H]2C1 [trans-decahydronaphthalene] + CCCCCCCCCCC
refractive index, [1], 100 kPa
Conditions	x1 = 0.1041	x1 = 0.2052	x1 = 0.3027	x1 = 0.3999	x1 = 0.4997	x1 = 0.5991	x1 = 0.6991	x1 = 0.8019	x1 = 0.8992	x1 = 1
298.15 K	1.4188	1.423	1.4272	1.4319	1.4367	1.4421	1.4476	1.4535	1.4594	1.4662
308.15 K	1.4143	1.419	1.4232	1.428	1.4331	1.4378	1.4434	1.4496	1.4559	1.4618
318.15 K	1.4099	1.4146	1.4191	1.4236	1.4281	1.4332	1.439	1.4452	1.4515	1.4581

[2]
Conditions	mass density [kg/m3]	viscosity [mPa·s]
293.15 K, x1 = 0.1041	751.02	1.214
293.15 K, x1 = 0.2052	761.89	1.258
293.15 K, x1 = 0.3027	772.86	1.315
293.15 K, x1 = 0.3999	784.34	1.369
293.15 K, x1 = 0.4997	796.76	1.444
293.15 K, x1 = 0.5991	809.74	1.529
293.15 K, x1 = 0.6991	823.47	1.625
293.15 K, x1 = 0.8019	838.4	1.752
293.15 K, x1 = 0.8992	853.35	1.899
293.15 K, x1 = 1	869.78	2.112
298.15 K, x1 = 0.1041	747.37	1.12
298.15 K, x1 = 0.2052	758.22	1.159
298.15 K, x1 = 0.3027	769.19	1.212
298.15 K, x1 = 0.3999	780.66	1.26
298.15 K, x1 = 0.4997	793.09	1.326
298.15 K, x1 = 0.5991	806.06	1.406
298.15 K, x1 = 0.6991	819.79	1.492
298.15 K, x1 = 0.8019	834.72	1.606
298.15 K, x1 = 0.8992	849.65	1.741
298.15 K, x1 = 1	866.07	1.925
303.15 K, x1 = 0.1041	743.67	1.037
303.15 K, x1 = 0.2052	754.53	1.073
303.15 K, x1 = 0.3027	765.5	1.121
303.15 K, x1 = 0.3999	776.97	1.165
303.15 K, x1 = 0.4997	789.4	1.222
303.15 K, x1 = 0.5991	802.37	1.296
303.15 K, x1 = 0.6991	816.09	1.376
303.15 K, x1 = 0.8019	831.02	1.478
303.15 K, x1 = 0.8992	845.94	1.597
303.15 K, x1 = 1	862.34	1.769
308.15 K, x1 = 0.1041	739.97	0.965
308.15 K, x1 = 0.2052	750.83	0.996
308.15 K, x1 = 0.3027	761.8	1.041
308.15 K, x1 = 0.3999	773.28	1.081
308.15 K, x1 = 0.4997	785.7	1.136
308.15 K, x1 = 0.5991	798.67	1.201
308.15 K, x1 = 0.6991	812.39	1.274
308.15 K, x1 = 0.8019	827.31	1.366
308.15 K, x1 = 0.8992	842.22	1.473
308.15 K, x1 = 1	858.61	1.628
313.15 K, x1 = 0.1041	736.25	0.9
313.15 K, x1 = 0.2052	747.11	0.929
313.15 K, x1 = 0.3027	758.09	0.972
313.15 K, x1 = 0.3999	769.57	1.006
313.15 K, x1 = 0.4997	781.99	1.058
313.15 K, x1 = 0.5991	794.96	1.117
313.15 K, x1 = 0.6991	808.67	1.182
313.15 K, x1 = 0.8019	823.59	1.267
313.15 K, x1 = 0.8992	838.5	1.364
313.15 K, x1 = 1	854.88	1.505
318.15 K, x1 = 0.1041	732.53	0.842
318.15 K, x1 = 0.2052	743.39	0.869
318.15 K, x1 = 0.3027	754.37	0.908
318.15 K, x1 = 0.3999	765.85	0.94
318.15 K, x1 = 0.4997	778.27	0.988
318.15 K, x1 = 0.5991	791.24	1.042
318.15 K, x1 = 0.6991	804.95	1.101
318.15 K, x1 = 0.8019	819.87	1.18
318.15 K, x1 = 0.8992	834.77	1.267
318.15 K, x1 = 1	851.14	1.394
323.15 K, x1 = 0.1041	728.79	0.789
323.15 K, x1 = 0.2052	739.66	0.815
323.15 K, x1 = 0.3027	750.64	0.852
323.15 K, x1 = 0.3999	762.12	0.881
323.15 K, x1 = 0.4997	774.54	0.924
323.15 K, x1 = 0.5991	787.51	0.975
323.15 K, x1 = 0.6991	801.22	1.028
323.15 K, x1 = 0.8019	816.14	1.1
323.15 K, x1 = 0.8992	831.03	1.18
323.15 K, x1 = 1	847.4	1.295
